Data set [1] has as its system breast carcinoma cell EMT6/KU. Put plainly: In vitro hypoxic cell sensitization effect (colony formation, gamma-ray). To be noted: 1 mM test compound, EMT6/KU hypoxic cells, ratio of radiation amounts without/with compound. Format: cell-based, Balb/c mouse. As for the experimental part:
The degree of the hypoxic cell radiosensitization effects of optical isomers of the present invention as compared with the racemate was studied by the in vitro assay.
Specifically, the radiosensitization effects were investigated using breast carcinoma cell EMT6/KU derived from Balb/c mouse. A hypoxic cell suspension was prepared from MEM suspension-containing EMT6/KU cells at a concentration 4×10^5 cells/ml by adding the test compound to a final concentration of 1 mM, and gently shaking it under a nitrogen gas stream containing 5% CO2 for one hour at room temperature. Gamma-ray was irradiated to the suspension and a radiation-survival rate curve was developed by the colony formation method. The sensitization rate was determined from this radiation-survival rate curve by dividing (i) the amount of radiation which decreases the survival rate of the hypoxic cells by 1% when no test compound was added by (ii) the amount of radiation which decreases the survival rate of the hypoxic cells by 1% when the test compound was added.

The test system of data set [2] is EMT6/KU-cancerated Balb/c mouse. As to the kind of experiment: In vivo-in vitro hypoxic cell sensitization effect (EMT6/KU tumour-bearing mouse, gamma-ray, colony forming method). To be noted: 200 mg/kg; 20 Gy gamma-ray 30 minutes thereafter. The protocol: The degree of the hypoxic cell radiosensitization effects of optical isomers of the present invention in in vivo-in vitro system was investigated in the same manner using the racemate as a control. Specifically, the radiosensitization effects were investigated using EMT6/KU-cancerated Balb/c mouse. 200 mg/kg of each test compound was administered and 20 Gy gamma-ray was irradiated 30 minutes thereafter. Carcinoma was extracted and treated with trypsin to prepare a cell suspension. The survival rate was determined by the colony forming method. A physiological saline solution was administered to the control.

Data set [3] can be described thus: Dissolution test (solubility). The data set is classed as physicochemical. The note with it: for solubilities compared with SR-RS racemate: water and physiological saline. The protocol:
Solubilities of SS, RR, SR, and RS isomers and SR-RS racemate in water and physiological saline were determined.

Data set [4] is described as follows: Octanol-phosphate partition coefficient. The data set is classed as physicochemical. The note with it: for logD at 24 h: octanol/0.2 m phosphate buffer; for partitioning toward the octanol layer: octanol-phosphate, pH 7.4; for partition coefficient: average of 1.4 times and 0.7 times; for partition coefficient / partition coefficient at 0.7 times the solubility in octanol / partition coefficient at 1.4 times the solubility in octanol: 1440 min; for partition coefficient at 0.7 times the solubility in octanol / partition coefficient at 1.4 times the solubility in octanol: octanol/0.2 mol phosphate buffer pH 7.4, 20° C. The protocol: The partition coefficient in the octanol-phosphate buffer solution system, which is indicative of the degree of orientation toward nerve tissues, was determined. […] To the weighed samples 10 ml of 0.2 mol phosphate buffer (pH 7.4), defined in the Pharmacopoeia of Japan, and 10 ml of octanol were added. The mixtures were shaken for 24 hours at 20° C. under light shielding. Octanol and phosphate layers were partitioned to determine the absorbance of each layer. […] The partition coefficients obtained were averaged to determine the partition coefficient of each sample.

The subject of another data set is hypoxic cell. To be noted: cited from earlier work.
A short description of data set [5]: Acute toxicity test (LD50/14), i.v. or i.p. To be noted: mouse, in vivo. An excerpt:
Test compounds, dissolved in physiological saline or a physiological saline solution containing 10% DMSO, were intravenously or intraperitoneally injected to ICR male mice, aged 5 weeks.

The next data set has as its system male ICR mice. The note with it: mouse, in vivo, iv. The protocol: The acute toxicity was determined using groups of male ICR mice, aged 5 weeks, each group consisting of five mice. Test compounds were dissolved in physiological saline and administered by injection through caudal vein. The death-survival determination was made 14 days after the administration.

Where [6] appears, read: physiological saline, read-out: Solubility in physiological saline.
Setting [7] is: water, read-out: Solubility in water.
Where [8] appears, read: pH 7.4, average of 1.4 times and 0.7 times, pH 7.4, 20° C., read-out: partition coefficient (converted).
[9] abbreviates: pH 7.4, octanol/0.2 mol phosphate buffer pH 7.4, 20° C., 24 hours, 0.7 times, read-out: partition coefficient at 0.7 times the solubility in octanol (converted).
The mark [10] stands for this setting: pH 7.4, octanol/0.2 mol phosphate buffer pH 7.4, 20° C., 24 hours, 1.4 times, read-out: partition coefficient at 1.4 times the solubility in octanol (converted).
The mark [11] stands for this setting: intravenously or intraperitoneally, ICR male mice, 14 days.

≈ marks a conversion by molar mass, not a printed value. Read-outs that look alike come from different tables or passages of the source.

Turning to `O=[N+]([O-])c1nccn1CO[C@H](CO)[C@@H](O)CO` (relative stereo) [SR-RS racemate, (1'RS,2'SR)-1-[(2',3'-dihydroxy-1' -hydroxymethyl)propoxy]methyl-2-nitroimidazole], the “Hypoxic cell sensitization rate” value in data set [1] amounted to 1.7. In addition, in data set [2], the “Hypoxic cell survival rate” value stood at 0.08%. Moreover, the solubility in data set [3] (setting [6]) and in data set [3] (setting [7]) was 40 mg/mL (≈ 162 mM) throughout. For the same molecule, the logD at 24 h in data set [4] (setting [8]) is -1.33; in data set [4] (setting [9]) it was -1.24; in data set [4] (setting [10]) it was -1.43. Moreover, the “hypoxic cell radiosensitization effect compared with misonidazole” value in the data set on hypoxic cell is “about the same degree of hypoxic cell radiosensitization effect as misonidazole”.
For the molecule `O=[N+]([O-])c1nccn1CO[C@H](CO)[C@@H](O)CO` [Compound (3)], the LD50 (commonly the dose at which mortality reaches 50%) at 336 h in data set [5] (setting [11]) was found to be 5900 mg/kg.
For the molecule `O=[N+]([O-])c1nccn1CO[C@@H](CO)[C@@H](O)CO` [SS isomer, (1'S,2'S)-1-[(2', 3'-dihydroxy-1'-hydroxymethyl)propoxy]methyl-2-nitroimidazole], the “Hypoxic cell sensitization rate” value in data set [1] is 1.8. In data set [2], the “Hypoxic cell survival rate” value amounted to 0.07%. Further, the solubility (as a rule, how much of the substance goes into solution per volume) was found to be 820 mg/mL (≈ 3320 mM) in data set [3] (setting [6]) and 850 mg/mL (≈ 3440 mM) in data set [3] (setting [7]). Besides, the “solubilities compared with SR-RS racemate” value in data set [3] is “remarkably larger than that of SR-RS racemate”. For the same molecule, the “partitioning toward the octanol layer” value in data set [4] is on record as “less partitioned toward the octanol layer”. Moreover, the figures for the logD at 24 h in data set [4] (setting [8]), in data set [4] (setting [9]) and in data set [4] (setting [10]) were -1.55, -1.51 and -1.59, respectively. In data set [5], this molecule gave an LD50 at 336 h of 6000 mg/kg. For the same molecule, the “safety compared with other optically active isomers” value in the data set on male ICR mice is given as “better safety than other optically active isomers”.
As to `O=[N+]([O-])c1nccn1CO[C@H](CO)[C@H](O)CO` [RR isomer, (1'R,2'R)-1-[(2', 3'-dihydroxy-1'-hydroxymethyl)propoxy]methyl-2-nitroimidazole], in data set [1], the “Hypoxic cell sensitization rate” value worked out at 1.8. For the same molecule, in data set [2], the “Hypoxic cell survival rate” value was 0.07%. For the same molecule, the results for the solubility in data set [3] (setting [6]) and in data set [3] (setting [7]) were 870 mg/mL (≈ 3520 mM) and 740 mg/mL (≈ 2990 mM), respectively. Besides, the “solubilities compared with SR-RS racemate” value in data set [3] is “remarkably larger than that of SR-RS racemate”. Besides, the “partitioning toward the octanol layer” value in data set [4] is reported as “less partitioned toward the octanol layer”. Besides, the logD at 24 h was -1.6 in data set [4] (setting [8]), -1.59 in data set [4] (setting [9]) and -1.62 in data set [4] (setting [10]). In data set [5], this molecule displayed an LD50 at 336 h of 6000 mg/kg.
As for `COCC(O)Cn1ccnc1[N+](=O)[O-]` (stereo not drawn) [Misonidazole, reference compound], the logD at 24 h is -0.409 in data set [4] (setting [8]), -0.397 in data set [4] (setting [9]) and -0.423 in data set [4] (setting [10]).
Consider `O=[N+]([O-])c1nccn1COC(CO)C(O)CO` (single isomer, unassigned) [RS or SR isomer (rotation(+))], for which the “Hypoxic cell sensitization rate” value in data set [1] worked out at 1.7. Besides, the “Hypoxic cell survival rate” value in data set [2] is on record as 0.08%. Further, the solubility in data set [3] (setting [6]) came to 70 mg/mL (≈ 283 mM). The molecule also showed a partition coefficient in data set [4] (pH 7.4, 20° C.) of 0.056. Moreover, the “partition coefficient at 0.7 times the solubility in octanol” value in data set [4] (24 hours, 0.7 times) stood at 0.059. Also, the “partition coefficient at 1.4 times the solubility in octanol” value in data set [4] (24 hours, 1.4 times) was 0.053.
On to `O=[N+]([O-])c1nccn1CO[C@@H](CO)[C@H](O)CO` [Compound (4)], for which, in data set [5] (setting [11]), the LD50 at 336 h turned out to be 5900 mg/kg.
Take `O=[N+]([O-])c1nccn1CO[C@@H](CO)[C@H](O)CO` [SR isomer]: in data set [3], the “solubilities compared with SR-RS racemate” value is recorded as “remarkably larger than that of SR-RS racemate”.
Same read-out and setting: the entry for `O=[N+]([O-])c1nccn1CO[C@H](CO)[C@@H](O)CO` [RS isomer] is “remarkably larger than that of SR-RS racemate”.
Regarding `O=[N+]([O-])c1nccn1COC(CO)C(O)CO` (single isomer, unassigned) [RS or SR isomer (rotation(-))], in data set [1], the “Hypoxic cell sensitization rate” value was found to be 1.7. Besides, the “Hypoxic cell survival rate” value in data set [2] was determined as 0.08%. Further, the “Solubility in physiological saline” value in data set [3] (physiological saline) stood at 0.06 g/ml. In data set [4] (pH 7.4, 20° C.), this molecule displayed a partition coefficient of 0.053. Besides, the “partition coefficient at 0.7 times the solubility in octanol” value in data set [4] (24 hours, 0.7 times) was 0.058. For the same molecule, in data set [4] (24 hours, 1.4 times), the “partition coefficient at 1.4 times the solubility in octanol” value amounted to 0.048.

The values above are taken from patent publication US5532380A, “R,R,S,S-2-nitroimidazole derivatives” (Pola Chemical Industries, Inc., priority 1992, dated 1996).
